Source: PMC4849076, “New Cyclic Lipopeptides of the Iturin Class Produced by Saltern-Derived Bacillus sp. KCB14S006” (Marine Drugs, 2016)
Converted amounts (≈) assume the structure as drawn. Like-named read-outs stand apart in the source and are kept apart here. *1 amine or outer side, *2 acyl side, *3 side chain or, on linkers, in order; H or OH if unused. Where a SMILES comes first, the peptide text is derived from it. [ ]: non-standard residue; d: D form. X1 = CCC(C)CCCCCCCCCC[C@H](CC(=O)[*:2])N[*:1]; X2 = CC(C)CCCCCCCCCCC[C@H](CC(=O)[*:2])N[*:1]; Hyp = O=C(O)[C@@H]1C[C@@H](O)CN1

Legend:
[1] = tested on: Aspergillus flavus KCTC 6984; experiment: Antifungal assay (MIC), Aspergillus flavus; format: cell-based; conditions: for MIC: Aspergillus flavus, potato dextrose broth, 2% of overnight cultures, 28 °C, 72 h, lowest concentration preventing visible growth; for Antifungal activity compared with 3 and 4: A. flavus, from MIC
Experimental: (§1) The following microorganisms were used as test strains in the assay; Aspergillus flavus KCTC 6984, Neurospora crassa KCTC 6079, Candida tropicalis KCTC 7830, Candida albicans KCTC 7678, Fusarium oxysporum f. sp. cucumerinum KCTC 6084, Alternaria brassicicola ATCC 96836 and Penicillium griseofulvum KCTC 6435. Potato dextrose broth (Difco Laboratories) was used for a test medium. For C. albicans and C. tropicalis, 100 μL of inoculum suspension of 10^5 spores/mL was plated into 96-well plates containing diluted test compounds, and the plates were incubated at 28 °C for 48 h. For A. flavus, N. crassa, F. oxysporum, A. brassicicola and P. griseofulvum, 100 μL of cell suspension containing 2% of overnight cultures in 96-well were incubated at 28 °C for 72 h. The MIC values were determined as the lowest concentration of each compound that prevented visible growth.

[2] = tested on: Neurospora crassa KCTC 6079; experiment: Antifungal assay (MIC), Neurospora crassa; format: cell-based; conditions: for MIC: Neurospora crassa, potato dextrose broth, 2% of overnight cultures, 28 °C, 72 h, lowest concentration preventing visible growth; for Antifungal activity compared with 3 and 4: N. crassa, from MIC
Experimental: as §1

[3] = tested on: Candida tropicalis KCTC 7830; experiment: Antifungal assay (MIC), Candida tropicalis; format: cell-based; conditions: 10^5 spores/mL, 28 °C, 48 h, lowest concentration preventing visible growth
Experimental: as §1

[4] = tested on: Candida albicans KCTC 7678; experiment: Antifungal assay (MIC), Candida albicans; format: cell-based; conditions: for MIC: Candida albicans, potato dextrose broth, 10^5 spores/mL, 28 °C, 48 h, lowest concentration preventing visible growth; for Antifungal activity compared with 3 and 4: C. albicans, from MIC
Experimental: as §1

[5] = tested on: Fusarium oxysporum f. sp. cucumerinum KCTC 6084; experiment: Antifungal assay (MIC), Fusarium oxysporum; format: cell-based
Experimental: as §1

[6] = tested on: Alternaria brassicicola ATCC 96836; experiment: Antifungal assay (MIC), Alternaria brassicicola; format: cell-based; conditions: 2% of overnight cultures, 28 °C, 72 h, lowest concentration preventing visible growth
Experimental: as §1

[7] = tested on: Penicillium griseofulvum KCTC 6435; experiment: Antifungal assay (MIC), Penicillium griseofulvum; format: cell-based; conditions: for MIC: Penicillium griseofulvum, potato dextrose broth, 2% of overnight cultures, 28 °C, 72 h, lowest concentration preventing visible growth; for Antifungal activity compared with 3 and 4: P. griseofulvum, from MIC
Experimental: as §1

human recombinant IDO = target: T1, human recombinant IDO (Homo sapiens, UniProt P14902); experiment: Indoleamine 2,3-dioxygenase (IDO) inhibition assay; format: biochemical
T1 construct: made in house; host or cells: E. coli
Experimental: The enzymatic inhibition assay was performed with human recombinant IDO expressed in E. coli according to previously described method with some modifications. The reaction mixture (200 μL) contained 50 mM potassium phosphate buffer (pH 6.5), 20 mM ascorbic acid, 10 μM methylene blue, 200 μM L-Trp, 20 μg/mL catalase and a sample in 2 μL of DMSO. The samples were serially diluted […] from 50 to 0.1 μM. The reaction was started by the addition of IDO and continued at 37 °C for 60 min. After termination of the reaction by addition of 40 μL of 30% (w/v) trichloroacetic acid, the resulting mixtures were incubated at 60 °C for 15 min, followed by centrifugation at 2000 × g for 15 min. Finally, 125 μL of supernatant is added to 125 μL of p-dimethylaminobenzaldehyde (pDMAB) (2%, v/v) in acetic acid, and the absorbance at 480 nm was measured.

Cytotoxicity assay, HeLa = format: cell-based; conditions: human, HeLa cells, DMEM + 10% fetal bovine serum, 37 °C, WST-8, absorbance 450 nm, read-out: Cytotoxic activity, IC50
Experimental: (§2) The human cervix epidermoid carcinoma cell line HeLa was cultured at 37 °C in DMEM (Invitrogen/Life Technologies, Carlsbad, CA, USA), supplemented with 10% fetal bovine serum (Sigma-Aldrich, St. Louis, MO, USA). src^ts-NRK cells, rat kidney cells that were infected with ts25, a T-class mutant of Rous sarcoma virus Prague strain, were cultured at permissive temperature (32 °C) in MEM (Sigma-Aldrich), supplemented with 10% calf serum (PAA Laboratories, Pashing, Austria). Each cell line was seeded into a 96-well plate (HeLa, 4 × 10^3 cells/well; src^ts-NRK, 1 × 10^4 cells/well) and then exposed to test compounds. After 48 h incubation, cell proliferation was determined using a Cell Count Reagent SF (Nacalai Tesque). Briefly, a 1/10 volume of WST-8 solution was added to each well, and the plates were incubated at 37 °C for 1 h. Then, the absorbance at 450 nm was measured in a microplate reader.

[8] = Cytotoxicity assay, src^ts-NRK; format: cell-based; conditions: rat, src^ts-NRK cells, MEM + 10% calf serum, 32 °C (permissive temperature), WST-8, absorbance 450 nm, read-out: Cytotoxic activity, IC50
Experimental: as §2

MDA-MB-231 = tested on: MDA-MB-231; parameters: method as in PMID 25974307; conditions: MDA-MB-231 breast cancer cells; cited from earlier work
MCF-7 = tested on: MCF-7; parameters: method as in PMID 25974307; conditions: MCF-7 breast cancer cells; cited from earlier work
Akt signaling network = tested on: Akt signaling network; parameters: method as in PMID 25974307; conditions: MDA-MB-231 and MCF-7 breast cancer cells; cited from earlier work
[9] = potato dextrose broth, 2% of overnight cultures, 28 °C, 72 h, lowest concentration preventing visible growth

T1 sequence (P14902 whole entry): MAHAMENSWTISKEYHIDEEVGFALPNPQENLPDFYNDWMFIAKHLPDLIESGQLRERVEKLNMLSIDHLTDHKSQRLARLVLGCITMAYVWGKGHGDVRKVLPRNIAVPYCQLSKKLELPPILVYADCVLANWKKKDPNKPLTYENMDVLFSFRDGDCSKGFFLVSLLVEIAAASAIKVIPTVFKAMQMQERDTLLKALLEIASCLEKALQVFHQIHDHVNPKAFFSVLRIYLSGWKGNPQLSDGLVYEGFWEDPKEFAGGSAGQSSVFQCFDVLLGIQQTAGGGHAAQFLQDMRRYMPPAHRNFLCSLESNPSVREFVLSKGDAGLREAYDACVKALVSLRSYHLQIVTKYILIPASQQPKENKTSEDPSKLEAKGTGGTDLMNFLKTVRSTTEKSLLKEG

C[C@@H]1[C@H](O)[C@@H](C)/C=C/C=C/C=C/C=C/C=C/C=C/C=C/[C@H](O[C@@H]2O[C@H](C)[C@@H](O)[C@H](N)[C@@H]2O)C[C@@H]2O[C@](O)(C[C@@H](O)C[C@@H](O)[C@H](O)CC[C@@H](O)C[C@@H](O)CC(=O)O[C@H]1C)C[C@H](O)[C@H]2C(=O)O [Amphotericin B, reference compound]
MIC ([1]; KCTC6984, read-out: MIC): 0.195 µg/mL (≈ 0.211 µM)
MIC ([2]; KCTC6079, read-out: MIC): 0.098 µg/mL (≈ 0.106 µM)
MIC ([3]; KCTC7830, potato dextrose broth, read-out: MIC): 0.781 µg/mL (≈ 0.845 µM)
MIC ([4]; KCTC7678, read-out: MIC): 0.098 µg/mL (≈ 0.106 µM)
MIC ([5]; KCTC6084, 72 h): 12.5 µg/mL (≈ 13.5 µM)
MIC ([6]; ATCC96836, potato dextrose broth, read-out: MIC): 0.391 µg/mL (≈ 0.423 µM)
MIC ([7]; KCTC6435, read-out: MIC): 3.12 µg/mL (≈ 3.38 µM)

CC1=CC(=O)c2ccccc2C1=O [menadione, reference compound]
IC50 (human recombinant IDO): 0.64 µM

CC(C)CCCCCCCCCCC[C@@H]1CC(=O)N[C@@H](CC(N)=O)C(=O)N[C@H](Cc2ccc(O)cc2)C(=O)N[C@H](CC(N)=O)C(=O)N[C@@H](CCC(N)=O)C(=O)N2CCC[C@H]2C(=O)N[C@H](CC(N)=O)C(=O)N[C@@H](CO)C(=O)N1 [Compound 3, Iturin A9] (cyclo(N[dY][dN]QP[dN]S[X2]))
MIC [1]: 25 µg/mL (≈ 23 µM)
MIC [2]: 12.5 µg/mL (≈ 11.5 µM)
MIC ([3]; potato dextrose broth): 6.25 µg/mL (≈ 5.76 µM)
MIC [4]: 12.5 µg/mL (≈ 11.5 µM)
MIC [5, 9]: 25 µg/mL (≈ 23 µM)
MIC ([6]; potato dextrose broth): 25 µg/mL (≈ 23 µM)
MIC [7]: 6.25 µg/mL (≈ 5.76 µM)
IC50 at 48 h (Cytotoxicity assay, HeLa): 4.6 µM
IC50 at 48 h [8]: 5.2 µM

CCC(C)CCCCCCCCCC[C@@H]1CC(=O)N[C@@H](CC(N)=O)C(=O)N[C@H](Cc2ccc(O)cc2)C(=O)N[C@H](CC(N)=O)C(=O)N[C@@H](CCC(N)=O)C(=O)N2C[C@H](O)C[C@H]2C(=O)N[C@H](CC(N)=O)C(=O)N[C@@H](CO)C(=O)N1 (stereo partly drawn) [Compound 2, Iturin F2] (cyclo(N[dY][dN]Q[Hyp][dN]S[X1]))
Antifungal activity compared with 3 and 4 [1]: better activities than 3 and 4
MIC [1]: 3.125 µg/mL (≈ 2.84 µM)
Antifungal activity compared with 3 and 4 [2]: better activities than 3 and 4
MIC [2]: 6.25 µg/mL (≈ 5.68 µM)
MIC ([3]; potato dextrose broth): 6.25 µg/mL (≈ 5.68 µM)
Antifungal activity compared with 3 and 4 [4]: better activities than 3 and 4
MIC [4]: 6.25 µg/mL (≈ 5.68 µM)
MIC [5, 9]: 25 µg/mL (≈ 22.7 µM)
MIC ([6]; potato dextrose broth): 25 µg/mL (≈ 22.7 µM)
Antifungal activity compared with 3 and 4 [7]: better activities than 3 and 4
MIC [7]: 3.125 µg/mL (≈ 2.84 µM)
IC50 at 48 h (Cytotoxicity assay, HeLa): 7.8 µM
IC50 at 48 h [8]: 7.4 µM

CC(C)CCCCCCCCCCC[C@@H]1CC(=O)N[C@@H](CC(N)=O)C(=O)N[C@H](Cc2ccc(O)cc2)C(=O)N[C@H](CC(N)=O)C(=O)N[C@@H](CCC(N)=O)C(=O)N2C[C@H](O)C[C@H]2C(=O)N[C@H](CC(N)=O)C(=O)N[C@@H](CO)C(=O)N1 [Compound 1, Iturin F1] (cyclo(N[dY][dN]Q[Hyp][dN]S[X2]))
Antifungal activity compared with 3 and 4 [1]: better activities than 3 and 4
MIC [1]: 3.125 µg/mL (≈ 2.84 µM)
Antifungal activity compared with 3 and 4 [2]: better activities than 3 and 4
MIC [2]: 6.25 µg/mL (≈ 5.68 µM)
MIC ([3]; potato dextrose broth): 6.25 µg/mL (≈ 5.68 µM)
Antifungal activity compared with 3 and 4 [4]: better activities than 3 and 4
MIC [4]: 6.25 µg/mL (≈ 5.68 µM)
MIC [5, 9]: 25 µg/mL (≈ 22.7 µM)
MIC ([6]; potato dextrose broth): 25 µg/mL (≈ 22.7 µM)
Antifungal activity compared with 3 and 4 [7]: better activities than 3 and 4
MIC [7]: 3.125 µg/mL (≈ 2.84 µM)
IC50 at 48 h (Cytotoxicity assay, HeLa): 8.9 µM
IC50 at 48 h [8]: 8.9 µM

iturin A
Inhibition of proliferation (MDA-MB-231): inhibits the proliferation
Inhibition of proliferation (MCF-7): inhibits the proliferation
Inhibition of Akt signaling network (Akt signaling network): inhibiting the Akt signaling network

CCC(C)CCCCCCCCCC[C@@H]1CC(=O)N[C@@H](CC(N)=O)C(=O)N[C@H](Cc2ccc(O)cc2)C(=O)N[C@H](CC(N)=O)C(=O)N[C@@H](CCC(N)=O)C(=O)N2CCC[C@H]2C(=O)N[C@H](CC(N)=O)C(=O)N[C@@H](CO)C(=O)N1 (stereo partly drawn) [Compound 4, Iturin A8] (cyclo(N[dY][dN]QP[dN]S[X1]))
MIC [1]: 12.5 µg/mL (≈ 11.5 µM)
MIC [2]: 12.5 µg/mL (≈ 11.5 µM)
MIC ([3]; potato dextrose broth): 6.25 µg/mL (≈ 5.76 µM)
MIC [4]: 12.5 µg/mL (≈ 11.5 µM)
MIC [5, 9]: 25 µg/mL (≈ 23 µM)
MIC ([6]; potato dextrose broth): 25 µg/mL (≈ 23 µM)
MIC [7]: 6.25 µg/mL (≈ 5.76 µM)
IC50 at 48 h (Cytotoxicity assay, HeLa): 5.6 µM
IC50 at 48 h [8]: 9 µM
IC50 (human recombinant IDO; human recombinant IDO expressed in E. coli, 50 mM potassium phosphate pH 6.5, 200 μM L-Trp, 37 °C, 60 min, pDMAB, absorbance 480 nm, read-out: IDO inhibition, IC50): 5.5 µM
IDO inhibitory activity (in words) (human recombinant IDO; human recombinant IDO, pH 6.5, 200 μM L-Trp, 37 °C, 60 min, samples 0.1 to 50 μM): significant inhibitory activity
